Results on 86 compounds are retold here after a melting point compilation (Tetko et al.; mined from patent text by program, amines drawn as free bases though some values may be those of a salt).

As for `COC(=O)c1cccc(Cn2ccc(OCc3ccc(F)cc3F)c(Cl)c2=O)c1F`, the melting point (as a rule, the temperature, or range, at which the solid turns liquid) is 171 to 174 °C. As to `CCCCCc1c(C(C)C)nc(C(C)C)c(CO)c1-c1cccc(F)c1`, the melting point lay in the range of 117 to 118 °C. For `CCCOc1ccc(S(=O)(=O)N2CCN(CCOC(=O)CC)CC2)cc1-c1nc2c(CCC)cn(CC)c2c(=O)[nH]1` the value was 126 to 128 °C; for `c1cc(-c2cnc(-c3ccc(-c4cnco4)o3)o2)nc(-c2cnc(-c3ccc(-c4cnco4)o3)o2)c1`, more than 250 °C. The compound `CC1(C)CNc2nc3cnc4ccccc4c3n2C1` gave a melting point of 326 to 330 °C. For `CC(C)(C)C(=O)SCCNC(=O)CCNC(=O)OCc1ccccc1` the value was 87 to 88 °C. Take `COc1ccc2cccc(C(=O)CNC(C)=O)c2c1`: the melting point fell in the range of 122 to 124 °C. For `Cc1nc2c([nH]c(=O)c3ccccc32)s1`, the melting point is 310 to 320 °C. In turn, `COc1ccc2nc(-c3ccc(OC)c(F)c3)cc(O)c2c1` yielded a melting point of 326 to 328 °C.

`CC(=O)NC[C@H]1CN(c2ccc(C3CCN(CC#N)CC3)c(F)c2)C(=O)O1` registered a melting point of 165 to 167 °C.

In turn, `CCCCCCCCOc1ccc(-c2ccc(OCC(C)OC(=O)C(C)CC)cc2)cc1` (stereo unspecified) yielded a melting point of 56 °C.

On to `CCOC(=O)c1c(C)cc2nc(COC(N)=O)n(-c3ccccc3C(F)(F)F)c(=O)c2c1C`, for which the melting point was in the range of 158 to 159 °C. In turn, `CCN(CC)C(=O)COC(=O)c1cc(S(N)(=O)=O)c(Cl)cc1NCc1ccco1` showed a melting point of 135 to 136 °C. The compound `O=C(O)c1cc2cc(Cl)ccc2nc1NC(Cc1cccc(F)c1)C(=O)O` (stereo unspecified) displayed a melting point of 177 to 181 °C. Compound `C#CCC(c1ccc(Cl)cc1Cl)C(O)(C(C)=O)c1cccnc1` (stereo unspecified) registered a melting point of 132 °C. In turn, `CN1CCN(Cc2ccc(-c3nc4cc([N+](=O)[O-])ccc4o3)s2)CC1` yielded a melting point of 135 to 137 °C. Regarding `CC(C)n1nc(-c2c(OCC(=O)NC3CC3)nc(N)nc2-c2ccccc2)ccc1=O`, the melting point lay within 87 to 92 °C. The compound `CNC(=O)[C@@H]1O[C@H]1c1ccc(OC)cc1` gave a melting point of 135 to 136 °C. For `C=CCS(=O)c1c(O)cc(C)oc1=O` (stereo unspecified) the value was 111 to 112 °C. The compound `CCOC(=O)CC(C)c1ccc(C2COc3c(C)c(C)c(NC(=O)CC(C)(C)C)c(C)c32)cc1` (stereo unspecified) had a melting point of 100 to 101 °C. Compound `CCOC(=O)C1=C(C)NN=C(CC)C1c1ccccc1C(F)(F)F` (stereo unspecified) showed a melting point of 124 °C. The compound `O=C(O)c1cn(-c2ccc(F)cc2)c2cc(F)c(F)cc2c1=O` had a melting point of 252 to 256 °C. On to `COCCNc1nc(C)c(C)c(N2CCc3ccccc3C2C)n1` (stereo unspecified), for which the melting point is 64 to 67 °C. Compound `O=C1NC(NCC2CC2)=N/C1=C\c1c[nH]c2ncc(N3CCOCC3)cc12` registered a melting point of 331 °C. The result for `COc1ccc(OC)c(CCNC(=O)N(C)O)c1` reads 73 to 74 °C; that for `CN(C(=S)N[C@@H](Cc1ccc(NC(=O)c2c(Cl)cncc2Cl)cc1)C(=O)O)c1ccccc1C(=O)NCC1CCCCC1`, 175 °C. As to `CCOC(=O)c1c(Cn2ccnn2)nc2cc(OC)c(OC)cc2c1-c1ccc(OC)c(OC)c1`, the melting point was in the range of 195 to 196 °C. In turn, `O=c1c2ccccc2n(-c2cccc([N+](=O)[O-])c2)c2nc3ccccc3n12` had a melting point of 294 °C. In the case of `CCCOc1ccccc1-c1nc2nc(N)nnc2c(=O)[nH]1`, the melting point lay within 255 to 256 °C. `CCOC(=O)c1c(C)nn(-c2c(Cl)cc(Cl)cc2Cl)c1N` showed a melting point of 150 °C.

`O=C(CCCc1ccccc1)c1cc(O)c(O)c([N+](=O)[O-])c1` gave a melting point of 118 to 119 °C. `CCOC(=O)c1c(C(C)C)nn(-c2ccccc2)c1-c1ccc(F)cc1` displayed a melting point of 92 to 93 °C. Turning to `N#Cc1ccc(N(Cc2ccc(Br)cc2)n2cnnc2)cc1-c1ccc(OS(N)(=O)=O)cc1`, the melting point was in the range of 122 to 123 °C. Consider `Cc1cc2c(c3c1NC(=O)CC3)OC(CN(C)C(=O)CCCO)C2` (stereo unspecified), for which the melting point is 141 to 143 °C. `COc1cc(OCC(CO)CO)c(-c2cccs2)cc1C=CC(=O)c1ccc(C(=O)O)cc1` displayed a melting point of 199 to 201 °C. Consider `COc1ccc(C(Cc2ccncc2)c2ccc(C(N)=O)cc2)cc1OC1CCCC1` (stereo unspecified), for which the melting point lay in the range of 180 to 182 °C.

Turning to `CC(C)(Cn1cnc2c(N)nc3c(c21)CCCC3)OCCS(C)(=O)=O`, the melting point is 219 to 223 °C. Compound `COC(=O)[C@@H]1O[C@@H](c2ccccc2)N(NS(=O)(=O)c2ccc([N+](=O)[O-])cc2)[C@H]1c1ccccc1` returned a melting point of 118 to 120 °C. The result for `Cc1c(NC(=O)NCCCO)c(C)c2c(c1-c1ccccc1)OCC2c1ccc(C(C)C)cc1` (stereo unspecified) reads 145 to 146 °C; that for `Fc1ccc(C(c2ccc(Cl)cc2Cl)C(F)n2cncn2)cc1` (stereo unspecified), 96 to 104 °C; that for `CCc1noc(-c2ncn(-c3cccnc3)c2COC)n1`, 70 to 72 °C.

Compound `CN1CCN(c2nn3ccnc3c3c2CCCC3)CC1` gave a melting point of 79.5 °C. `N#Cc1cccc(-c2nc(-c3ccc(C(N)=O)cc3)cc3cccnc23)c1` yielded a melting point of 237 to 240 °C. Compound `Cc1nc(Cl)c(C)c(-c2c(C)c(N)c(C)c3nsnc23)n1` returned a melting point of 105 to 106 °C. Take `COc1cccc(NC(=O)c2cc(C)sc2Br)c1O`: the melting point is 169 to 172 °C. With `CNN(NC)C(=O)Nc1cccc2c1C(=O)c1c-2n[nH]c1-c1ccc(OC)s1`, the melting point worked out at 280 °C. Turning to `CCc1nnc2cc(N3CCN(C)CC3)nc(CC)n12`, the melting point fell in the range of 128 to 131 °C. `CC(C#Cc1ccc(C(=O)Cc2ccc(F)cc2)o1)N(O)C(N)=O` (stereo unspecified): the melting point fell in the range of 154 to 156 °C. The result for `CS(=O)(=O)c1ccc(-c2nnc(Oc3ccc(F)cc3F)cc2-c2ccc(Cl)cc2)cc1` reads 115 to 117 °C. `CCCc1c(OCCCCCOc2c(C(C)=O)ccc(OCCCC(=O)O)c2CCC)ccc(C(C)=O)c1O`: the melting point lay within 61 to 66 °C. Compound `CN1C(=O)N(c2cc(F)c(C#N)cc2F)C(=O)CC1(N)C(F)(F)F` (stereo unspecified) showed a melting point of 115 °C.

The compound `Cc1cc(Cl)ccc1OCC(=O)N1Cc2cccn2Cc2ccccc21` displayed a melting point of 166 to 167 °C. For `O=C(O)COc1cccc2c1OCc1sc(SC(c3ccccc3)c3ccccc3)nc1-2`, the melting point lay in the range of 129 to 131 °C. For `COc1cc2c(cc1Nc1ncc(Cl)c(Nc3ccc(N4CCOCC4)cc3OC)n1)CCN(CC(=O)N1CCCC1)CC2`, the melting point was 82 to 105 °C.

Compound `c1ccc(COC2COC(c3ccco3)OC2)cc1` (stereo unspecified) returned a melting point of 50 to 52 °C.

Turning to `COc1ccc(C2CC(C(C)(C)C)=NN2c2ccc(C(=O)O)cc2)cc1` (stereo unspecified), the melting point is 209 °C. For `CCCOc1ccc(C=CC(=O)c2c(OC)cc(OC)cc2OC(=O)CC)cc1` the value was 102 °C. The result for `OCC(O)c1cccc(OCc2ccc3ccccc3c2)c1` (stereo unspecified) reads 121 to 122 °C; that for `CCSC1=C(c2ccc(O)cc2)C(=O)c2cc(O)ccc21`, 78 to 81 °C; that for `CCC1(C)CC2(NC(=O)N(C)C2=O)C(C)C(C)(CC)N1` (stereo unspecified), 137 to 142 °C. Compound `CC(=O)OCC1OC(n2cnc3c(NCC(c4ccccc4)c4ccccc4)nc(Cl)nc32)C(OC(C)=O)C1OC(C)=O` (stereo unspecified) returned a melting point of 68 to 71 °C. For `Nc1c(CC(=O)O)cccc1Oc1cc(Cl)cc(Cl)c1` the value was 113 to 115 °C; for `COC(=O)Cc1ccc(C(O)(C#N)c2ccccc2)n1C` (stereo unspecified), 137 to 138 °C. `OCCn1ccccc1=S` registered a melting point of 95 to 97 °C.

The compound `CC(C)Cn1c(CO)c(-c2ccc(F)cc2)c2cc(OCc3ccccc3)ccc2c1=O` displayed a melting point of 143 to 144 °C. For `OC1CNc2nc3ccccc3n2C1` (stereo unspecified) the value was 158 to 160 °C; for `Cc1cccc(C2CC(=O)c3ccccc3O2)c1` (stereo unspecified), 156 to 158 °C. Compound `Cc1nc(N)nc(-c2cccc3ccccc23)c1C` registered a melting point of 214 to 215 °C. The compound `N=C(N)NOc1nccc2ccccc12` registered a melting point of 162 to 164 °C.

Take `COc1cc(OCc2ccccn2)ccc1/C=C/c1cc(/C=C/c2ccc3[nH]ccc3c2)n[nH]1`: the melting point fell in the range of 98 to 104 °C. For `OCC1OC(OCc2ccccc2)C(OCc2ccccc2)C(OCc2ccccc2)C1OCc1ccccc1` (stereo unspecified), the melting point lay within 99 to 101 °C. `Clc1ccccc1CCN1CCN(c2n[nH]c3c2CCc2ccccc2-3)CC1` registered a melting point of 134 to 136 °C. `CCOC(=O)c1sc(-c2ccc3c(=O)n(CC(C)C)c(CNC(=O)OCC4c5ccccc5-c5ccccc54)c(-c4ccccc4)c3c2)nc1C` registered a melting point of 157 to 158 °C. For `COc1ccccc1C(=C/C=C/C(=O)Oc1ccc([N+](=O)[O-])cc1)c1ccccc1OC` the value was 142 to 143 °C; for `CCOC(=O)C(C=O)c1ccc(Cl)cc1` (stereo unspecified), 50 °C. The compound `O=C(O)CNC(=O)n1cc(C(=O)c2ccn3c2CSC3c2cccnc2)c2ccc(-c3ccc(F)cc3)cc21` (stereo unspecified) came in with a melting point of 255 °C.

Regarding `O=[N+]([O-])c1ccc(CCN2CCC(N3CCc4ccccc43)CC2)cc1`, the melting point lay within 95 to 97 °C.

`O=C(CCCCCBr)NC1CCCCC1` registered a melting point of 73 to 74 °C. Compound `CONc1nc(-c2ccccc2)c2cc(Cl)ccc2n1` gave a melting point of 174 °C.

Regarding `Cc1cc(-c2c3ccccc3c(Br)c3sc(C)c(C)c23)cc(C)c1OS(=O)(=O)c1ccc(C(=O)O)c(O)c1`, the melting point is more than 225 °C. In the case of `CC1CC(=O)NN=C1c1ccc(O)cc1` (stereo unspecified), the melting point lay within 268 to 273 °C. As for `CC(C)=CC(=O)N1CC(NC(=O)Nc2cccc(C(=O)O)c2)C(=O)N(CC(=O)c2ccccc2C)c2cc(C)ccc21` (stereo unspecified), the melting point was in the range of 240 to 242 °C. Consider `CCc1ncnc(N[C@H]2CS[C@@H](c3ccc(C)cc3)SC2)c1Cl`, for which the melting point was 138 to 139 °C. For `Cc1nc2ncnn2c2c1CCN2Cc1ccccc1` the value was 170 to 172 °C; for `Cn1nc2c(oc3ccccc32)c1NC=O`, 184 to 187 °C; for `CCCn1c(=O)c2nc(-c3ccc(/C=C/C(=O)OCC)cc3)[nH]c2n(CCC)c1=O`, more than 300 °C.
